From US10682388B2, “Targeting of PELP1 in cancer therapy” (THE BOARD OF REGENTS OF THE UNIVERSITY OF TEXAS SYSTEM, priority 2014, dated 2020) come the findings set out here.

One assay concerns ZRPELP1 cells. The experiment in a line: Initial screen, proliferation assay of PELP1-overexpressing breast cancer cells. The format is cell-based, Human. The following applies: peptide every 3 days, absorbance at 7 days, FIG. 1B. The procedure:
FIGS. 1A-D. (FIG. 1A) Diagram for yeast two hybrid screen to identify PELP1 binding peptides. Four regions of PELP1 were tagged with the binding domain and a library of 10^6 random peptides (Clontech) were bound to an activation domain. The number of positive colonies per region of PELP1 are shown in the graph. (FIG. 1B) A proliferation assay was performed with […]1 cells plated in a 96 well plate, treated with peptide every 3 days and absorbance was measured at 7 days. (FIG. 1C) ZR75 were plated in a 6-well plate on coverslips in 8% RPMI and treated with 10 uM FITC labeled peptide for 30, 60, or 120 minutes. They were then fixed with pararformaldehyde, stained for PELP1 (red) and DAPI (blue), and imaged by confocal microscopy to monitor intracellular delivery. (FIG. 1D) ZR75 cells were starved of estrogen for 72 hours and treated with estradiol 10^-7 M for 12 hours. Nuclear lysate was incubated with biotin-tagged peptides bound to avidin beads for one hour. Beads were washed, run on SDS-PAGE gel and probed for PELP1 expression. Input of nuclear lysate is shown as control. Cell proliferation rates were measured by using MTT Cell Viability Assay in 96-well plates. Model cells were seeded in 96-well plates (1×10^3 cells/well) in DMEM or RPMI medium containing 10% serum. After an overnight incubation, cells were treated with varying concentrations of the peptides for 3-7 days and growth inhibition was determined by using traditional MTT assay (Sigma) following manufacturer's instructions.

The target in another assay is T1, PELP1-G9a complex (Homo sapiens, UniProt Q8IZL8).
T1 construct: purified bacterial, full-length PELP1; host or cells: bacteria (PELP1)
The assay can be described thus: In vitro peptide competition assay, G9a-GST on glutathione beads with purified PELP1. The format is binding. The following applies: peptides 2, 5, 10 μM, 2 hours, FIGS. 2C, 7B, 9. The procedure: FIGS. 2A-D. (FIG. 2A) Immunoprecipitation was performed on nuclear lysates obtained from ZRPELP1 cells grown in 5% DCC for 72 hours and treated with estradiol 10^−7 M for 12 hours. PELP1 was immunoprecipitated and western blotting was performed for PELP1 and G9a expression with IgG as the control. (FIG. 2B) Various fragments of PELP1 bound to glutathione beads were incubated with recombinant G9a for 2 hours. Beads were washed, run on an SDS-PAGE gel and immunoblotted for G9a expression. GST tag alone is shown as control. (FIG. 2C) Recombinant G9a-GST was bound to glutathione beads and incubated with purified PELP1 and peptides for 2 hours. Beads were washed and run on SDS-PAGE gel. (FIG. 2D) ZR75 cells were transfected with ERE-luciferase, PELP1 and/or G9a plasmids and treated with peptide for 24 hours and estradiol 10^−7 M for 12 hours. Relative luciferase activity is shown.
FIGS. 7A-E. (FIG. 7A) Bacterial purified PELP1 was incubated with biotin-tagged peptides bound to avidin beads for one hour. Beads were washed, run on SDS-PAGE gel and probed for PELP1 expression. Input of bacterial PELP1 is shown as control. (FIG. 7B) Recombinant G9a-GST was bound to glutathione beads and incubated with purified PELP1 and peptides for 2 hours. Beads were washed and run on SDS-PAGE gel. (+2 μM, ++5 μM, +++10 μM). (FIG. 7C) ZRGST and ZRPELP1GST cells were transfected in triplicate with TopFlash β-catenin reporter and treated with TAT or PIP1 (10 μM) for 24 hours. Relative luciferase activity is shown. (FIG. 7D) MCF7vec and MCF7PELP1 cells were treated with TAT or PIP1 (10 μM) and toxicity was measured by CytoTox-Flour Cytotoxicity Assay. (FIG. 7E) ZR75 and ZR75PELP1 cells were treated with TAT, PIP1 or PIP2 for 24 hours and immunoblotted for PELP1 and ERα expression with actin as the loading control.
FIG. 9. […]
Peptides were linked to EZ-Link NHS-Biotin (Thermo Scientific) per manutfacturer's protocol. […] Beads were washed 3× with IP buffer (20 mM HEPES pH 7.9, 20% glycerol, 0.1% triton-x, 100 mM KCl), eluted with SDS-dye, and PELP1 expression was determined by western blotting. […]

The test system of assay [1] is T98G, LN229 and U251 glioma cells and patient-derived primary GBM cells. The assay can be described thus: MTT proliferation assay, glioma cell lines and primary GBM cells. The format is cell-based. The conditions noted are these: FIGS. 15A-D. The procedure:
FIGS. 15A-D. PIPs inhibit proliferation of glioma cells. (FIGS. 15A-B) T98G, LN229 and U251 glioma cells were treated with vehicle or varying concentration of PIP1 or PIP3, and proliferation was measured by using the MTT assay. (FIGS. 15C-D) Patient-derived primary GBM cells were treated with PIP1 or PIP3 and proliferation was measured using the MTT assay. Cell proliferation rates were measured by using MTT Cell Viability Assay in 96-well plates. Model cells were seeded in 96-well plates (1×10^3 cells/well) in DMEM or RPMI medium containing 10% serum. After an overnight incubation, cells were treated with varying concentrations of the peptides for 3-7 days and growth inhibition was determined by using traditional MTT assay (Sigma) following manufacturer's instructions.

Assay [2] has as its system MDA-MB-231 and MDA-MB-468. The experiment in a line: MTT proliferation assay, triple negative breast cancer cell lines. The conditions noted are these: preliminary studies. The format is cell-based. As for the experimental part: FIGS. 8A-C. (FIG. 8A) ZR75PELP1KD cells were treated in triplicate with TAT or PIP1 (10, 20, or 50 μM) every 3 days and proliferation was measured by MTT assay on day 7. (FIG. 8B) MCF7PELP1KD cells were treated in triplicate with TAT or PIP1 (10, 20, or 50 μM) every 3 days and proliferation was measured by MTT assay on day 7. (FIG. 8C) MDAMB231 and MDAMB468 cells were treated in triplicate with TAT or PIP1 (10 μM) every 3 days and proliferation was measured by MTT assay on day 7. Cell proliferation rates were measured by using MTT Cell Viability Assay in 96-well plates. Model cells were seeded in 96-well plates (1×10^3 cells/well) in DMEM or RPMI medium containing 10% serum. After an overnight incubation, cells were treated with varying concentrations of the peptides for 3-7 days and growth inhibition was determined by using traditional MTT assay (Sigma) following manufacturer's instructions.

Assay [3] relates to TNBC (MDA-MB-231 and MDA-MB-468) and ER-positive (ZR-75 and MCF-7) breast cancer cell lines. The experiment in a line: MTT proliferation assay of PIP3, TNBC and ER-positive breast cancer cell lines. The format is cell-based. The following applies: 10 μM and dose response, FIGS. 13A-C. The procedure: FIGS. 13A-C. […] (FIG. 13A) Breast cancer cells were treated with vehicle or 10 μM PIP3 and proliferation was measured by using the MTT assay. (FIGS. 13B-C) Dose response curves for PIP3. Cell proliferation rates were measured by using MTT Cell Viability Assay in 96-well plates. Model cells were seeded in 96-well plates (1×10^3 cells/well) in DMEM or RPMI medium containing 10% serum. After an overnight incubation, cells were treated with varying concentrations of the peptides for 3-7 days and growth inhibition was determined by using traditional MTT assay (Sigma) following manufacturer's instructions.

The subject of assay [4] is ERE-luciferase in ZRPELP1 cells. The assay can be described thus: ERE-luciferase reporter gene assay in PELP1 overexpressing cells. The format is cell-based, Human. The conditions noted are these: peptide 24 hours, estradiol 12 hours, compared to control TAT, FIGS. 4B, 10. The procedure: (§1) FIGS. 4A-E. (FIG. 4A) ZR75vec, ZR75PELP1, MCF7vec and MCF7PELP1 cells were treated in triplicate with TAT, PIP1 or PIP1 deletions (Del1, Del2, Del3) at 10 uM every 3 days and proliferation was measured by MTT assay on day 7. (FIG. 4B) ZRPELP1 cells were transfected with ERE-luciferase and treated with TAT, PIP1, or PIP2 for 24 hours and with estradiol for 12 hours. Relative luciferase activity was measured in triplicate. (FIG. 4C) ZR75 cells were grown in 5% DCC media for 72 hours, treated with TAT or PIP1 every 3 days, and treated with estradiol 10^−7 M for 12 hours. Proliferation was measured in triplicate on day 7 by MTT assay at 595 nm. (FIG. 4D) MCF7-Letrozole resistant cells were grown in 5% DCC media for 72 hours, treated with TAT, PIP1 or PIP2 every 3 days, and letrozole or estradiol 10^−7 M for 12 hours. Proliferation was measured in triplicate on day 7 by MTT assay at 595 nm. (FIG. 4E) MCF7-Tamoxiefn resistant cells were grown in 5% DCC media for 72 hours, treated with TAT, PIP1 or PIP2 every 3 days, and tamoxifen or estradiol 10^−7 M for 12 hours. Proliferation was measured in triplicate on day 7 by MTT assay at 595 nm.
FIG. 10. ERE-luciferase assay. […]
Model cells were seeded in 6-well plates. […] Luciferase activity was measured by using the luciferase assay system (Promega, Madison, Wis.).
(A reporter such as luciferase makes a cellular process visible.)

Assay [5] deals with MCF7-TamR and MCF7-LTLT cells. The experiment in a line: Therapy resistance assays, MTT. The format is cell-based, Human. The conditions noted are these: MCF7-TamR and MCF7-LTLT, 10 μM, FIGS. 4D-E, 11. The procedure: as §1
FIG. 11. Cell proliferation assay: letrozole-resistant MCF-7-LTLT cells and Tamoxifen resistant MCF7-Tam cells were treated with TAT, PIP1, or PIP2 (10 μM)+/− letrozole or Tamoxifen.
Tamoxifen (Tam) therapy resistant MCF7-TamR and letrozole resistant MCF7-LTLT cells were cultured in tamoxifen or letrozole (10^-7M) containing media in the presence or absence of peptides and proliferation was measured by MTT assay (Sigma) following manufacturer's instructions.

“Also recorded” adds a separate entry of the source.

T1 sequence (Q8IZL8 2-1130, one chain of several): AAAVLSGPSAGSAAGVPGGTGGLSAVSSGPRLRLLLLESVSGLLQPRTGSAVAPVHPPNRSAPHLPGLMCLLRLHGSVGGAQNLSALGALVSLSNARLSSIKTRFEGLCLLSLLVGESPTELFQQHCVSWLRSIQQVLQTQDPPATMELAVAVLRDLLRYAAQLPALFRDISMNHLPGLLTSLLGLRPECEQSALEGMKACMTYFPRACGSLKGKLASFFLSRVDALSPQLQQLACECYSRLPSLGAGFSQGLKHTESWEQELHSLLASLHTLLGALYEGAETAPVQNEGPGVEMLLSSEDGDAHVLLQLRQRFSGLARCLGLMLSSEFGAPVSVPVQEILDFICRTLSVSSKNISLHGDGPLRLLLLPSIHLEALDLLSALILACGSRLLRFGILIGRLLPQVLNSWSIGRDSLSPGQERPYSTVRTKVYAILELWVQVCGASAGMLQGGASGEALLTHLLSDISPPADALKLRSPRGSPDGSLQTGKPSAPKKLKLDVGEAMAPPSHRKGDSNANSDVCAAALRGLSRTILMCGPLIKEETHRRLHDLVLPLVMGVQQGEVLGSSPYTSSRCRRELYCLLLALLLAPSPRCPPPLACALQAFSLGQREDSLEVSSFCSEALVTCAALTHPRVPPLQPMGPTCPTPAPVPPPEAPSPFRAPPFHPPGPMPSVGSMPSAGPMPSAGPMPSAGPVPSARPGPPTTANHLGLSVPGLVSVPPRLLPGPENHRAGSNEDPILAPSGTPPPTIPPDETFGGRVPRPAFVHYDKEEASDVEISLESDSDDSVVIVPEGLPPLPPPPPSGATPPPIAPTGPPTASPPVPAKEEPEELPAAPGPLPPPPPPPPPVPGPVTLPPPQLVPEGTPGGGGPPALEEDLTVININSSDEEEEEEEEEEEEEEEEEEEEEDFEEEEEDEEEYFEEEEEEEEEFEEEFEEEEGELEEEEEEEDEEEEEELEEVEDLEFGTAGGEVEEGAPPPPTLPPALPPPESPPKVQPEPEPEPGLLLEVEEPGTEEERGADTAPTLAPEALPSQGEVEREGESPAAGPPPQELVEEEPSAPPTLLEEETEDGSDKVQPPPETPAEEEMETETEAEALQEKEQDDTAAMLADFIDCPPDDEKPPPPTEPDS

In the case of GRKKRRQRRRGG [TAT, reference compound], in the assay on ZRPELP1 cells, the “PELP1-mediated breast cancer cell proliferation” value is given as “no significant effect”. Further, the “disruption of PELP1 interaction with G9a/EHMT2” value in the assay with PELP1-G9a complex is reported as “no effect”.

With GRKKRRQRRRGGFKEWWRIDMVWLHRVRRNSY [PIP3], the “concentration of potent activity on glioma proliferation” value in assay [1] was 5 to 10 µM. In addition, the “proliferation of glioma cell lines and primary GBM cells” value in assay [1] (varying concentration) is reported as “significantly reduced their proliferation in a dose-dependent manner”. Moreover, the “activity on TNBC cells” value in assay [2] is “has activity in triple negative cells”. Further, the “growth of TNBC and ER-positive breast cancer cell lines” value in assay [3] was “inhibited growth; also recorded: inhibits proliferation of breast cancer cells”.

As to GRKKRRQRRRGGIMGRGLCMRGVVRGRGRN [PIP2], the “PELP1-mediated breast cancer cell proliferation” value with ZRPELP1 cells is “significantly inhibit PELP1-mediated proliferation”. In assay [4], the “ERE activation (ERE-luciferase)” value is listed as “significantly decreased ERE activation”. In addition, in the assay with PELP1-G9a complex, the “disruption of PELP1 interaction with G9a/EHMT2” value is reported as “disrupted by the addition of either of the two peptides in a dose-dependent manner”. The “proliferation of therapy resistant cell lines” value in assay [5] is listed as “inhibited the proliferation; also recorded: efficiently reduce the growth of therapy resistant cells”.
